Measured values from US20220033448A1, “METHODS FOR AGGREGATION OF PROTEINS” (priority 2011, published 2022).
Converted amounts (≈) assume the structure as drawn. Non-standard residues stand in square brackets, D forms with d. Residues, ends and D or L forms follow the SMILES beside them. No end group written: not given here. PEG3 = NCCOCCOCCOCCC(=O)O; AEEA = NCCOCCOCC(=O)O

How the values were obtained:
[1] = molecular target: β-Gal (Escherichia coli, UniProt P00722); conditions: for binding to β-Gal on blot: 250 nM biotinylated peptide, 1 h, complete BL21 cell lysate
Experimental: A 0.4 ml suspension of BL21 cells (OD600 nm ^˜1.2) expressing β-Gal (grown under induced conditions) was centrifuged at 5000 g for 10 min at room temperature. The supernatant was discarded and 0.8 ml of bacterial protein extraction reagent (B-PER, Thermo scientific) containing protease inhibitor was added to the bacterial pellet and vortex mixed for 30 s in order to lyse the cells. To 21 μl of the complete BL21 cell lysate 5 μl of 5× SDS sample loading buffer (Fermentas) was added and heated at 99° C. for 3 min. This mixture (26 μl per well) was loaded in a 10-well NuPage 4-12% Bis-Tris gel and the proteins were separated under denaturing conditions. The separated proteins were then transferred to a nitrocellulose membrane and blocked overnight with 1% BSA in phosphate buffer saline, 0.05% Tween 20, pH 7.4 (PBS-T) at 4° C. Each lane of the membrane was cut out and separately incubated with either rabbit anti-β-Gal antibody either biotinylated Tango 1, either biotinylated Tango 2, or the biotinylated off-target peptide or either a biotinylated Tango 2 mutant peptide.
This was followed by 3×10 min wash with PBS-T and finally rinsed in deionised water for 10 min. The membrane strip was exposed to chemiluminescence HRP substrate reagent (SuperSignal West Femto Maximum Sensitivity Substrate, Thermo Fisher Scientific) and target protein visualized using Bio-Rad ChemiDoc XRS imaging system.
A stock solution (10 μM) of each of the biotinylated peptides was prepared in 100% DMSO. The peptide stock was diluted (1/400) in 10 mM MES buffer, 100 mM Trehalose, 0.05% Tween 20, pH 5.5 to obtain a final concentration of the peptide of 25 nM. The freshly prepared peptide solution was immediately added to the membrane strip and gently agitated at room temperature. After 15 min the peptide solution was decanted and the membrane strip was washed 3×10 min with 10 mM MES buffer, 0.05% Tween 20, pH 5.5 and further processed as described herein before.

[2] = test system: Salmonella typhi ATCC14028; type: cell-based
[3] = test system: E. coli
Experimental: (§1) Bacteria were grown in a shaking incubator at 37° C. and 160rpm in 50 ml BHI , using individual colonies retrieved from a fresh overnight TSA-sheep blood plate. The cultures were grown to a density of approximately 1×10^8cells/ml and then diluted to 5×10^5 cells/ml in CAMHB (Mc Farland 0.5). Each well contained 100p.I (50p.I of peptide containing MHB plus 50 μl inoculum). The final cell density was 1×10^5 to 5×10^5/ml. After addition of the cell suspension, plates were incubated at 37° C. for 18 to 24 hours. The optical density at 590 nm (OD590) of each well was measured after 5 seconds of shaking the plate using Perkin Elmer spectrophotometer (1420 Multilabel Counter Vicotr 3). […] Each well, where no growth was observed, was also plated on TSA-sheep blood agar plates, incubated at 37° C. overnight and visually inspected.
(§2) A microbroth dilution method was used with twofold serial dilutions in CAMHB (according to EMEA guidelines) was used for screening of peptide activity, with concentrations ranging from 0.3 μg/mIto 200 μg/ml.

[4] = test system: Corynebacterium
Experimental: as §1, §2

[5] = test system: Klebsiella pneumoniae; type: cell-based
[6] = test system: B. cereus
Experimental: as §1, §2

[7] = test system: S. epidermidis
Experimental: as §1, §2

[8] = test system: E. faecalis
Experimental: as §1, §2

[9] = test system: S. aureus
Experimental: as §1, §2

[10] = test system: Nocardia asteroides
Experimental: as §1, §2

[11] = test system: S. hominis
Experimental: as §1, §2

[12] = test system: PR8 virus; type: cell-based, influenza A virus (H1N1 strain)
[13] = test system: human erythrocytes; type: cell-based
Source text: The detergent Tween was used as a positive control, causing 100% lysis of RBCs.

Sequence of β-Gal (P00722 2-1024 with the stated changes limits assumed): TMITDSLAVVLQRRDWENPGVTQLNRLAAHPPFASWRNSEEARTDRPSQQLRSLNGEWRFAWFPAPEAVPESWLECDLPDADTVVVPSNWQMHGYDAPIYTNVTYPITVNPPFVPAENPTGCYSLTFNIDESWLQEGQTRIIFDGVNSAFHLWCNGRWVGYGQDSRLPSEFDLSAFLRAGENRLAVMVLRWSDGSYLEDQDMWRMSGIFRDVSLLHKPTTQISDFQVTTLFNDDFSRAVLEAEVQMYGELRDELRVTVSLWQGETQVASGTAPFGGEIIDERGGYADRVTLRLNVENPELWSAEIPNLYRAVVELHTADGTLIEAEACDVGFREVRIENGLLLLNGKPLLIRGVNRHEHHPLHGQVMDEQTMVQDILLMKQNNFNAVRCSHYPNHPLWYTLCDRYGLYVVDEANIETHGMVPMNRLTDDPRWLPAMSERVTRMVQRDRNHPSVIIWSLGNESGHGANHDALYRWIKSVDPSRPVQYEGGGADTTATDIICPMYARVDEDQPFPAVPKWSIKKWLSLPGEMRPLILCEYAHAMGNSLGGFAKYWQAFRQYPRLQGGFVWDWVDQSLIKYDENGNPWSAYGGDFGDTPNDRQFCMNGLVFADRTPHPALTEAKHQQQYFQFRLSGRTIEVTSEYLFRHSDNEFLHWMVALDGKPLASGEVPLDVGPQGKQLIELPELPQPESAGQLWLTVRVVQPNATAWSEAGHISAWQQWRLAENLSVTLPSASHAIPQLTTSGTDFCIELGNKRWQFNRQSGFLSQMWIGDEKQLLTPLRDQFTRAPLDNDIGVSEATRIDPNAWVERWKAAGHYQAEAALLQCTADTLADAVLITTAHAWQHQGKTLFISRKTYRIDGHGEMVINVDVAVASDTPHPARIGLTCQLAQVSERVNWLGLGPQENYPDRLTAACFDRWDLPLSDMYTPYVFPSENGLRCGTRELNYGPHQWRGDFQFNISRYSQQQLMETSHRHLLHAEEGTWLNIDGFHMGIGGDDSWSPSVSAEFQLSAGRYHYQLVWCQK

Compound | Minimum inhibitory concentrations MIC90 [2] [µg/mL] | Minimum inhibitory concentrations MIC90 [3] [µg/mL] | Minimum inhibitory concentrations MIC90 [5] [µg/mL] | Minimum inhibitory concentrations MIC90 [6] [µg/mL] | Minimum inhibitory concentrations MIC90 [7] [µg/mL] | Minimum inhibitory concentrations MIC90 [8] [µg/mL] | Minimum inhibitory concentrations MIC90 [10] [µg/mL] | Minimum inhibitory concentrations MIC90 [11] [µg/mL] | other results
b~RVPIWSLGNR [Tango 2 Mut_1] | – | – | – | – | – | – | – | – | binding to β-Gal on blot [1]: still bind efficiently to β-Gal
b~RVIPWSLGNR [Tango 2 Mut_2] | – | – | – | – | – | – | – | – | binding to β-Gal on blot [1]: still bind efficiently to β-Gal
Ac-RILLGLIRRGSRILLGLIRR-NH2 [P2170/P1] | 100 | 25 | >200 | 6 | 6 | 12.5 | 6 | 3 | Minimum inhibitory concentrations MIC90 [4]: >200 µg/mL; Minimum inhibitory concentrations MIC90 [9]: 12.5 µg/mL
O Z RLIQLIVSRGSRLIQLIVSR [interferor 1] | – | – | – | – | – | – | – | – | virus replication [12]: still reproducibly inhibit virus replication
RLFNFLKRGSRLFNFLKR [C29/Hit11] | – | – | – | – | – | – | – | – | MIC values against Corynebacterium [4]: 6 µg/mL; MIC values against B.cereus ATCC [6]: 6 to 12.5 µg/mL; hemolytic activity [13]: no significant hemolytic activity at clinically relevant concentrations; MIC values against MRSA 326 [9]: 12.5 µg/mL; MIC values against S.aureus ATCC 29213 [9]: 12.5 to 25 µg/mL
b~RVIIWSLGNR [Tango 2] | – | – | – | – | – | – | – | – | binding to β-Gal on blot [1]: strong affinity to the β-Gal
RRILLGLIRPPRTIIGLVRR [mtop_11] | – | – | – | – | – | – | – | – | MIC value [7]: 12.5 µg/mL; MIC value [9]: >200 µg/mL
RFFIGLSRRGSRIQAYLYRR [Hit50A] | – | – | – | – | – | – | – | – | MIC values against B.cereus ATCC [6]: 50 µg/mL; MIC values against MRSA 326 [9]: 50 µg/mL; MIC values against S.aureus ATCC 29213 [9]: 100 µg/mL
CC[C@H](C)[C@H](NC(=O)[C@H](CC(C)C)NC(=O)CNC(=O)[C@H](CC(C)C)NC(=O)[C@H](CC(C)C)NC(=O)[C@@H](NC(=O)[C@H](CCCNC(=N)N)NC(=O)COCCOCCNC(=O)[C@H](CCCNC(=N)N)NC(=O)[C@H](CCCNC(=N)N)NC(=O)[C@@H](NC(=O)[C@H](CC(C)C)NC(=O)CNC(=O)[C@H](CC(C)C)NC(=O)[C@H](CC(C)C)NC(=O)[C@@H](NC(=O)[C@@H](N)CCCNC(=N)N)[C@@H](C)CC)[C@@H](C)CC)[C@@H](C)CC)C(=O)N[C@@H](CCCNC(=N)N)C(=O)N[C@@H](CCCNC(=N)N)C(N)=O [P2175/P1] (H-RILLGLIRR[AEEA]RILLGLIRR-NH2) | 50 (≈ 21.3 µM) | 25 (≈ 10.7 µM) | 50 (≈ 21.3 µM) | 12.5 (≈ 5.33 µM) | 12.5 (≈ 5.33 µM) | 12.5 (≈ 5.33 µM) | 3 (≈ 1.28 µM) | 3 (≈ 1.28 µM) | Minimum inhibitory concentrations MIC90 [4]: >200 µg/mL
RWVSMLLRRGSRVGYVIARR [Hit37] | – | – | – | – | – | – | – | – | MIC values against B.cereus ATCC [6]: >100 µg/mL; MIC values against MRSA 326 [9]: 100 µg/mL; MIC values against S.aureus ATCC 29213 [9]: 100 µg/mL
RRIILFILRPPRLILFLGRR [mtop_1] | – | – | – | – | – | – | – | – | MIC value [7]: 50 µg/mL; MIC value [9]: 200 µg/mL
RWVSMLLRRGSRWVSMLLRR [Hit1] | – | – | – | – | – | – | – | – | MIC values against Corynebacterium [4]: 3 µg/mL; MIC values against B.cereus ATCC [6]: 6 µg/mL; HD50 (concentration at which 50% of red blood cells are lysed) [13]: 25 to 50 µg/mL; MIC [9]: 3 µg/mL; MIC in presence of 50% FBS [9]: 25 µg/mL; MIC values against MRSA 326 [9]: 6 µg/mL
CC[C@H](C)[C@H](NC(=O)[C@H](CC(C)C)NC(=O)CNC(=O)[C@H](CC(C)C)NC(=O)[C@H](CC(C)C)NC(=O)[C@@H](NC(=O)[C@H](CCCNC(=N)N)NC(=O)[C@H](CO)NC(=O)CNC(=O)[C@H](CCCNC(=N)N)NC(=O)[C@H](CCCNC(=N)N)NC(=O)[C@@H](NC(=O)[C@H](CC(C)C)NC(=O)CNC(=O)[C@H](CC(C)C)NC(=O)[C@H](CC(C)C)NC(=O)[C@@H](NC(=O)[C@H](CCCNC(=N)N)NC(=O)COCCOCCN)[C@@H](C)CC)[C@@H](C)CC)[C@@H](C)CC)C(=O)N[C@@H](CCCNC(=N)N)C(=O)N[C@@H](CCCNC(=N)N)C(=O)O [P2153] (H-[AEEA]RILLGLIRRGSRILLGLIRR-OH) | >200 | 25 (≈ 10 µM) | 50 (≈ 20.1 µM) | 6 (≈ 2.41 µM) | 12.5 (≈ 5.02 µM) | 25 (≈ 10 µM) | 6 (≈ 2.41 µM) | 3 (≈ 1.2 µM) | –
CC[C@H](C)[C@H](NC(=O)[C@H](CC(C)C)NC(=O)CNC(=O)[C@H](CC(C)C)NC(=O)[C@H](CC(C)C)NC(=O)[C@@H](NC(=O)[C@H](CCCNC(=N)N)NC(=O)COCCOCCNC(=O)[C@H](CCCNC(=N)N)NC(=O)[C@H](CCCNC(=N)N)NC(=O)[C@@H](NC(=O)[C@H](CC(C)C)NC(=O)CNC(=O)[C@H](CC(C)C)NC(=O)[C@H](CC(C)C)NC(=O)[C@@H](NC(=O)[C@@H](N)CCCNC(=N)N)[C@@H](C)CC)[C@@H](C)CC)[C@@H](C)CC)C(=O)N[C@@H](CCCNC(=N)N)C(=O)N[C@@H](CCCNC(=N)N)C(N)=O [P2175/P2] (H-RILLGLIRR[AEEA]RILLGLIRR-NH2) | 25 (≈ 10.7 µM) | 50 (≈ 21.3 µM) | 100 (≈ 42.6 µM) | 12.5 (≈ 5.33 µM) | 6 (≈ 2.56 µM) | 6 (≈ 2.56 µM) | 6 (≈ 2.56 µM) | 1.5 (≈ 0.64 µM) | Minimum inhibitory concentrations MIC90 [4]: >200 µg/mL
RRWVSMLLRRGSRWVSMLLRR [Hit14] | – | – | – | – | – | – | – | – | MIC values against B.cereus ATCC [6]: 100 µg/mL; MIC values against S.epidermidis ATCC 12228 [7]: 50 µg/mL
RRILGLIARPPRIAFVILRR [mtop_18] | – | – | – | – | – | – | – | – | MIC value [7]: 50 µg/mL; MIC value [9]: <200 µg/mL
b~DVIIWSLGNR~b [Complimentary charge] | – | – | – | – | – | – | – | – | specificity of binding to β-gal versus serum proteins ([1]; competitive PepBlot, 7% clinical serum in adjacent lane, 25 nM, 15 min): does not cross react with proteins in the serum
CC[C@H](C)[C@H](NC(=O)[C@H](CC(C)C)NC(=O)CNC(=O)[C@H](CC(C)C)NC(=O)[C@H](CC(C)C)NC(=O)[C@@H](NC(=O)[C@H](CCCNC(=N)N)NC(=O)[C@H](CO)NC(=O)CNC(=O)[C@H](CCCNC(=N)N)NC(=O)[C@H](CCCNC(=N)N)NC(=O)[C@@H](NC(=O)[C@H](CC(C)C)NC(=O)CNC(=O)[C@H](CC(C)C)NC(=O)[C@H](CC(C)C)NC(=O)[C@@H](NC(=O)[C@H](CCCNC(=N)N)NC(=O)CCOCCOCCOCCN)[C@@H](C)CC)[C@@H](C)CC)[C@@H](C)CC)C(=O)N[C@@H](CCCNC(=N)N)C(=O)N[C@@H](CCCNC(=N)N)C(=O)O [P2154] (H-[PEG3]RILLGLIRRGSRILLGLIRR-OH) | >200 | 50 (≈ 19.6 µM) | 100 (≈ 39.2 µM) | 12.5 (≈ 4.91 µM) | 12.5 (≈ 4.91 µM) | 12.5 (≈ 4.91 µM) | 6 (≈ 2.35 µM) | 3 (≈ 1.18 µM) | –
CC[C@@H](C)[C@@H](NC(=O)[C@H](N)CCCNC(=N)N)C(=O)N[C@H](CC(C)C)C(=O)N[C@H](CC(C)C)C(=O)NCC(=O)N[C@H](CC(C)C)C(=O)N[C@@H](C(=O)N[C@H](CCCNC(=N)N)C(=O)N[C@H](CCCNC(=N)N)C(=O)NCC(=O)N[C@H](CO)C(=O)N[C@H](CCCNC(=N)N)C(=O)N[C@@H](C(=O)N[C@H](CC(C)C)C(=O)N[C@H](CC(C)C)C(=O)NCC(=O)N[C@H](CC(C)C)C(=O)N[C@@H](C(=O)N[C@H](CCCNC(=N)N)C(=O)N[C@H](CCCNC(=N)N)C(=O)O)[C@H](C)CC)[C@H](C)CC)[C@H](C)CC [DAA] (H-[dR][dI][dL][dL]G[dL][dI][dR][dR]G[dS][dR][dI][dL][dL]G[dL][dI][dR][dR]-OH; N-terminus and C-terminus assumed) | 100 (≈ 42.6 µM) | 25 (≈ 10.7 µM) | 25 (≈ 10.7 µM) | 6 (≈ 2.56 µM) | 1.5 (≈ 0.64 µM) | 6 (≈ 2.56 µM) | >200 | 1.5 (≈ 0.64 µM) | Minimum inhibitory concentrations MIC90 [4]: >200 µg/mL
H-RILLGLIRRGSRILLGLIRR-OH [P2151] | 100 | 25 | 25 | 12.5 | 12.5 | 25 | 12.5 | 3 | –
Ac-RILLGLIRRGSRILLGLIRR-NH2 [P2170/P2] | 100 | 25 | >200 | 6 | 12.5 | 12.5 | 3 | 3 | Minimum inhibitory concentrations MIC90 [4]: 100 µg/mL; Minimum inhibitory concentrations MIC90 [9]: 12.5 µg/mL
b~RPITVNPPFR [Off-Target] | – | – | – | – | – | – | – | – | binding to β-Gal on blot [1]: no interaction
RRILLLIARPPRILLGAIRR [mtop_12] | – | – | – | – | – | – | – | – | MIC value [7]: 12.5 µg/mL; MIC value [9]: >200 µg/mL
b~RLAVVLQR [Tango 1] | – | – | – | – | – | – | – | – | binding to β-Gal on blot [1]: weaker binding
RRIIGIIARPPRVLVTLLRR [mtop_22] | – | – | – | – | – | – | – | – | MIC value [7]: 50 µg/mL; MIC value [9]: <200 µg/mL
RRLLGLIIRPPRAIALTLRR [mtop_17] | – | – | – | – | – | – | – | – | MIC value [7]: 100 µg/mL; MIC value [9]: 50 µg/mL
